Experimental data published in US5047228A, “Nonionic 5-C-substituted 2,4,6-triiodoisophthalic acid derivatives” (Schering Aktiengesellschaft, priority 1980, dated 1991).

Key:
[1] = Stability in heat sterilization; assay type: physicochemical
Description: The present invention comprises nonionic X-ray contrast media based on the opacifying compounds of this invention with novel basic structures. These novel opacifying compounds are distinguished by a number of advantages. They are derived from triiodinated aromatic basic components which themselves are hydrophilic and nontoxic. […] They are also distinguished by a high chemical stability, especially also under the conditions of heat sterilization.
Solutions of the compounds of this invention can thus also be sterilized in the usual way by heating to 120° C. at a physiological pH value. The solutions have a low osmotic pressure even at high iodine concentrations, compared with the state of the art ionic X-ray contrast media. This is especially a prerequisite for a good local compatibility.

[2] = Distribution coefficient butanol/buffer pH 7.6; assay type: physicochemical
Description: The distribution coefficient of a compound permits ascertainment of its hydrophilicity and thus its compatibility; the lower the value of the distribution coefficient, the higher the compatibility of the compound tested.

dog erythrocytes = experiment: Erythrocyte damage (echinocyte formation in dog erythrocytes); assay type: cell-based; settings: effect of metrizamide set at 10 as a standard, smaller number = higher compatibility
Experimental: The deformation of erythrocytes (erythrocyte damage) due to X-ray contrast media can be taken as a measure for the membrane-damaging effect of the compound. In this instance, the formation of echinocytes was measured in dog erythrocytes, setting the effect of metrizamide at 10 as a standard. A smaller number signifies a correspondingly higher compatibility.

LD50 mouse (i.v.) = settings: in vivo, iv, injection rate 2 ml/min, concentration 300 mg/ml, observation period 24 h
Experimental: (§1) *Injection rate 2 ml/min; concentration 300 mg/ml; observation period 24

LD50 rat (i.v.) = settings: in vivo, iv, injection rate 2 ml/min, concentration 300 mg/ml, observation period 24 h
Experimental: as §1

Iodine content = assay type: physicochemical

SMILES	Stable in Heat Sterilization [1]	Distribution Coefficient Butanol/Buffer pH 7.6 [2]	Erythrocyte Damage (dog erythrocytes)	LD50 at 24 h (LD50 mouse (i.v.)) [mg/kg]	LD50 at 24 h (LD50 rat (i.v.)) [mg/kg]	Iodine Content (Iodine content) [%]
CC(=O)Nc1c(I)c(C(=O)N[C@H]2C(O)O[C@H](CO)[C@@H](O)[C@@H]2O)c(I)c(N(C)C(C)=O)c1I (stereo partly drawn) [A, reference compound]	No	0.259	10	12000	11000	48
CN(CC(O)CO)C(=O)c1c(I)c(C(=O)N(C)CC(O)CO)c(I)c(C(=O)N(C)CC(O)CO)c1I (stereo not drawn) [B, 2,4,6-triiodobenzene-1,3,5-tricarboxylic acid tris(2,3-dihydroxypropyl-N-methyl)triamide]	Yes	0.064	2.1	16000	11000	45
O=C(c1c(I)c(C(=O)N(CCO)CCO)c(I)c(C(=O)N(CCO)CCO)c1I)N(CCO)CCO [C, 2,4,6-triiodobenzene-1,3,5-tricarboxylic acid tris(bis-2-hydroxyethyl)triamide]	Yes	0.131	1.8		12000	45
CN(CC(O)CO)C(=O)c1c(I)c(C(N)=O)c(I)c(C(=O)N(C)CC(O)CO)c1I (stereo not drawn) [D, 2,4,6-triiodobenzene-1,3,5-tricarboxylic acid bis(2,3-dihydroxypropyl-N-methyl)triamide]	Yes	0.074	4.2			50
CN(CC(O)C(O)C(O)C(O)CO)C(=O)c1c(I)c(C(=O)N(C)CC(O)C(O)C(O)C(O)CO)c(I)c(C(=O)N(C)CC(O)C(O)C(O)C(O)CO)c1I (stereo not drawn) [E, 2,4,6-triiodobenzene-1,3,5-tricarboxylic acid tris(2,3,4,5,6-pentahydroxyhexyl-N-methyl)triamide]	Yes	< 0.001	< 0.3			34
CN(C)C(=O)c1c(I)c(C(=O)NCC(O)CO)c(I)c(C(=O)NCC(O)CO)c1I (stereo not drawn) [F, 2,4,6-triiodobenzene-1,3,5-tricarboxylic acid [(N,N-dimethyl)-bis(2,3-dihydroxypropyl)]-triamide]	Yes	0.171	2.7	14000	11000	50
CNC(=O)c1c(I)c(C(=O)NC(CO)C(O)CO)c(I)c(C(=O)NC(CO)C(O)CO)c1I (stereo not drawn) [G, 5-N-methylcarbamoyl-2,4,6-triiodoisophthalic acid bis(2,3-dihydroxy-1-hydroxymethylpropyl)diamide]	Yes	0.065	2.8		19000	47
